Test results: PMC9430360 (Microbiology Spectrum, 2022)

Assays:
GI.1c/RHDV FRG 3CLpro = GI.1c/RHDV FRG 3CLpro (Rabbit hemorrhagic disease virus, UniProt P27410); assay: FRET assay, 3CLpro of GI.1c/RHDV FRG strain; format: biochemical; conditions: 30 min preincubation with 3CLpro, 30 min with substrate, mean ± SEM, at least three experiments, read-out: IC50 GI.Ic/RHDV FRG
GI.3P-GI.2 TX1 3CLpro = GI.3P-GI.2 TX1 3CLpro (Rabbit hemorrhagic disease virus 2, UniProt A0A7M4BDB7); assay: FRET assay, 3CLpro of GI.3P-GI.2 TX1 strain; format: biochemical, GI.3P-GI.2 (RHDV2/b); conditions: 30 min preincubation with 3CLpro, 30 min with substrate, mean ± SEM, at least three experiments
GII.1/EBHSV G104 3CLpro = GII.1/EBHSV G104 3CLpro (European brown hare syndrome virus, UniProt Q96725); assay: FRET assay, 3CLpro of GII.1/EBHSV G104 strain; format: biochemical
Chain of GII.1/EBHSV G104 3CLpro (Q96725 1102-1244 limits assumed): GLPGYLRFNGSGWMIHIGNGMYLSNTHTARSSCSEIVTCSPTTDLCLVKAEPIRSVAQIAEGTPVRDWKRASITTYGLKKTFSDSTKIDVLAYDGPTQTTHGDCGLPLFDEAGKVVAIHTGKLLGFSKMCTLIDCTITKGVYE

3CLpro of GI.3P-GI.2 TX1 = molecular target: T1, 3CLpro of GI.3P-GI.2 TX1 (Rabbit hemorrhagic disease virus 2, UniProt A0A7M4BDB7); assay: cell-based; design: species or system GI.3P-GI.2 (RHDV2/b)
T1 sequence (A0A7M4BDB7 1109-1251): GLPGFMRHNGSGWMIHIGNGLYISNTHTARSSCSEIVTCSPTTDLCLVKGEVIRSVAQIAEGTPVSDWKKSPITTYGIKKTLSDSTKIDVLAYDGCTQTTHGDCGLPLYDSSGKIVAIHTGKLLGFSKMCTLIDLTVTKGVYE

[1] = Cytotoxicity assay (CytoTox 96, lactate dehydrogenase release); format: cell-based; conditions: human, 293T cells, up to 100 μM
Experimental: To determine the cytotoxicity of the compounds, 70 to 80% confluent 293T cells in a 96-well plate were incubated with serial dilutions of each compound (up to 100 μM) for 5 h. Cell cytotoxicity was determined by a CytoTox 96 nonradioactive assay kit (Promega, Madison, WI) by measuring a cytosolic enzyme lactate dehydrogenase, which is released upon cell lysis, following the manufacturer’s instructions, and the 50% cytotoxic concentration (CC50) value for each compound was calculated using GraphPad Prism software. The nonspecific cytotoxic effects of these compounds were also reported previously ([30], [31], [40], [43], [44]).

murine norovirus = test system: murine norovirus; design: method as in PMID 25761614; conditions: intestinal tracts of mice; cited from earlier work
FIPV 3CLpro = test system: FIPV 3CLpro; design: method as in PMID 30342822; conditions: FRET assay; read-out: IC50 against FIPV 3CLpro; cited from earlier work
FIP = test system: FIP; design: method as in PMID 27027316, PMID 28901812; conditions: cited from earlier work

Chain of GI.1c/RHDV FRG 3CLpro (P27410 1109-1251 limits assumed): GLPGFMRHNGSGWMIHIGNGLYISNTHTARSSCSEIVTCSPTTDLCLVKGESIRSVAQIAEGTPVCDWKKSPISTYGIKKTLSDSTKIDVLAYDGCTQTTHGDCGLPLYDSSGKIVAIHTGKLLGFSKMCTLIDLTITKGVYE

SMILES | IC50 (GI.1c/RHDV FRG 3CLpro) | IC50 (GI.3P-GI.2 TX1 3CLpro) | IC50 (GII.1/EBHSV G104 3CLpro) | EC50 (3CLpro of GI.3P-GI.2 TX1) | CC50 at 5 h [1] | in vivo efficacy, murine norovirus replication (murine norovirus) | IC50 (FIPV 3CLpro) | in vivo efficacy in cats with FIP (FIP)
O=C(N[C@@H](CC1CCCCC1)C(=O)N[C@H](C[C@@H]1CCNC1=O)C(=O)C(=O)NC1CC1)OCc1cccc(Cl)c1 [GC591] | 590 ± 40 nM | 730 ± 270 nM | 430 ± 70 nM | 9800 ± 1260 nM | > 100000 nM |  |  | 
O=C[C@@H](C[C@@H]1CCNC1=O)NC(=O)[C@H](CC1CCCCC1)NC(=O)OCc1cccc(Cl)c1 [GC583] | 80 ± 20 nM | 100 ± 80 nM | 50 ± 10 nM | 460 ± 50 nM | > 100000 nM | significantly decreasing murine norovirus replication in the intestinal tracts of mice without toxicity |  | 
O=C[C@@H](C[C@@H]1CCNC1=O)NC(=O)[C@H](CC1CCCCC1)NC(=O)OCc1ccccc1 [GC543] | 90 ± 30 nM | 120 ± 70 nM | 70 ± 10 nM | 550 ± 60 nM | > 100000 nM |  |  | 
CC(C)C[C@H](NC(=O)OCc1ccccc1)C(=O)N[C@H](C[C@@H]1CCNC1=O)C(O)S(=O)(=O)O (stereo partly shown) [GC376] | 1210 nM | 1390 nM | 1000 nM | 5350 ± 140 nM | > 100000 nM |  | 500 nM | reduced viral replication and improved survival
CC(C)CC(NC(=O)C(Cc1cccc2ccccc12)NC(=O)OCc1ccccc1)C(=O)NC(C=O)CC1CCNC1=O (stereo not shown) [NPI52] | 310 ± 20 nM | 570 ± 360 nM | 300 ± 90 nM | 4000 ± 430 nM | > 100000 nM |  |  | 
